Experiments:
TNF-alpha = TNF-alpha production in LPS-challenged mice, assayed by ELISA; format: in vivo; settings: Mus musculus, inhibition of TNF-alpha production, formulated in FS-1, oral gavage; for inhibition at 10 mg/kg: 10 mpk P.O.
Source text: Mice were challenged with LPS to produce TNF-alpha in vivo, and then assayed by ELISA after dosing with or without the TNF-alpha inhibitor (formulated in FS-1 and delivered through oral gavage).

[1] = In vitro incubation with liver microsomes of mouse, metabolite characterisation by HPLC/MS; format: in vitro ADME
Protocol: (§1) Stock solutions of NVP-VAQ996-NX-1 (2 mmol/L) were prepared in DMSO. Alamethicin solution was prepared (0.125 mmol/L) in water. Uridine 5′-diphosphoglucuronic acid (UDPGA) solution (24 mmol/L) was prepared in phosphate buffer 100 mM pH 7.4. In a further experiment 50 mmol/L gluthationic acid reduced (GSH) in phosphate buffer 100 mM pH 7.4 was added as second co-factor.
(§2) For the characterization of in vitro metabolites NVP-VAQ996-NX-1 was incubated at 37° C. for up to 60 minutes with liver microsomes from mouse and human (Table 3).
(§3) 3 μL liver microsomes, containing 20 mg protein/mL, were mixed with 417 μL phosphate buffer, 60 μL alamethicin solution and 60 μL UDPGA. To this reaction mixture 3 μL stock solution (2 mM in DMSO) of NVP-VAQ996-NX-1 was added and pre-incubated for 3 min at 37° C. After pre-incubation, the final reaction was started by addition of 60 μL of the nicotinamide-adenine-dinucleotide-phosphate (NADPH)-regenerating system, containing isocitrate-dehydrogenase (TU/mL), NADP (1 mmol/L), isocitrate (5 mmol/L). After 1 h, the reaction was stopped with 600 μL ice-cold acetonitrile. Experiments were conducted according to a generic protocol. The reaction mixture was stored at −80° C. The final set-up of the in vitro incubation is shown on Table 4.
(§4) Prior to use, the mixture was centrifuged (10000 g, 5 min) and 500 μL of 1 mL supernatant evaporated to dryness. […]

[2] = In vitro incubation with liver microsomes of human, metabolite characterisation by HPLC/MS; format: in vitro ADME
Protocol: as §1, §2, §3, §4

[3] = In vitro incubation in plasma from mice; format: in vitro ADME, Balb/c mice; settings: heparinized mouse plasma, 5 μg/ml, 2 or 24 hrs at 37° C.
Protocol: Heparinized mouse plasma was freshly obtained from Balb/c mice. Samples were incubated with 5 μg/ml NVP-VAQ996 added from a stock solution (1 mg/ml) in DMSO for 2 or 24 hrs at 37° C.
(§5) For protein precipitation, to 100 μL plasma 100 μL ice-cold acetonitrile was added. This procedure was repeated twice during 1 hour and, after centrifugation (10000 g, 5 min), the supernatant was used for further preparation.
(§6) The solvent of the supernatant was evaporated using the Cyclone high speed evaporator (Prolab, Reinach, Switzerland) and the residue reconstituted with water/acetonitrile (95/5; v/v). An aliquot of the final solution was used for the high performance liquid chromatography/mass spectrometry (HPLC/MS) analyses.
The liquid chromatographic separation was performed using an Chorus-220 syringe pump (CS analytics, Beckenried, Switzerland) and a home-made glass capillary column, 150 mm×0.3 mm, filled with Nucleosil C18-HD, particle size 3.5 μm Gradient mobile phase programming was used with a flow rate of 4.5 μL/min. Eluent A was acetonitrile/water (5/95) 10 mM HCOONH4+0.02% trifluoroacetic acid (TFA). Eluent B was acetonitrile/methanol/water (9/5/5)+10 mM HCOONH4+0.02% TFA. The mobile phase was held 2 min. isocratic at 5% B, followed by a linear gradient from 15% B to 95% B over 30 min and a 5 min isocratic phase at 95% B. The column temperature was kept at 40° C. […]

[4] = Metabolite identification in plasma after p.o. administration to mice; set-up: species or system Balb/c mice; settings: in vivo in plasma after p.o. administration of 10 mg/kg to mice
Protocol: Female Balb/c mice (Charles River) were housed under standard conditions with free access to food and drinking water throughout the experiment. The mice (n=4) were treated perorally with 10 mg/kg NVP-VAQ996-NX-1 (at 5 mL/kg) by gavage. At the allotted time points mice blood samples were obtained into heparinized tubes (30 IU/mL). The liver was removed intact, weighed and snap frozen before storage at −70° C. until analyzed.
as §5, §6
The liquid chromatographic separation was performed using an Chorus-220 syringe pump (CS analytics, Beckenried, Switzerland) and a home-made glass capillary column, 150 mm×0.3 mm, filled with Nucleosil C18-HD, particle size 3.5 μm Gradient mobile phase programming was used with a flow rate of 4.5 μL/min. Eluent A was acetonitrile/water (5/95) 10 mM HCOONH4+0.02% trifluoroacetic acid (TFA). […]

Row | Structure (SMILES) | inhibition at 10 mg/kg (TNF-alpha) | other results
1 | Cc1ccc2c(c1)c(N1CCNCC1)c(C#N)c(=O)n2CC(=O)c1ccccc1 [Compound 103] | 67.3% | 
2 | CCOC(=O)c1c(N2CCNCC2)c2sccc2n(Cc2cccc(F)c2)c1=O [Compound 113] |  | inhibition at 3 mg/kg (TNF-alpha; 3 mg/kg P.O., read-out: % Inhibition (tested at 3 mg/kg)): 84.1%
3 | Cc1ccc2c(c1)c(N1CCNCC1)c(C#N)c(=O)n2C [Compound 105] | 21% | 
4 | CCOC(=O)c1c(N2CCNCC2)c2ccccc2n(Cc2ccc(F)cc2)c1=O [Compound 101] | 43.4% | 
5 | CC(=O)N1CCN(c2c(C#N)c(=O)n(CC(=O)c3ccccc3)c3ccc(C)cc23)CC1 [Compound 115] | 41.3% | 
6 | N#Cc1c(N2CCNCC2)c2ccccc2n(CC(=O)c2ccccc2)c1=O [Compound 102] | 36.5% | 
7 | Cc1ccc2c(c1)c(N1CCN(C)CC1)c(C#N)c(=O)n2CC(=O)c1ccccc1 [Compound 114] | 51.6% | 
8 | Cn1c(=O)c([N+](=O)[O-])c(N2CCNCC2)c2ccccc21 [Compound 108] | 26.2% | 
9 | N#Cc1c(N2CCN(C(=O)c3cccs3)CC2)c2ccccc2n(CC(=O)c2ccccc2)c1=O [NVP-VAQ996-NX] |  | main metabolite ([1]; after in vitro incubation with liver microsomes of mouse): NVP-VAR235-NX; metabolic degradation with liver microsomes ([1]; mouse liver microsomes 0.1 mg/ml, 5 μM, 37° C., up to 60 min): high; main metabolite ([2]; after in vitro incubation with liver microsomes of human): NVP-VAR235-NX; metabolic degradation with liver microsomes ([2]; human liver microsomes 0.1 mg/ml, 5 μM, 37° C., up to 60 min): high; rate of degradation to metabolite ml in plasma [3]: high; main metabolite [4]: NVP-VAR235-NX
10 | CN1CCN(c2c(C#N)c(=O)n(CC(=O)c3ccccc3)c3ccccc23)CC1 [Compound 116] | 29.4% | 

Reference: US20080139551A1, “TUMOR NECROSIS FACTOR ALPHA INHIBITORS AND THEIR USE IN THE TREATMENT OF HUMAN DISEASES” (AVANIR PHARMACEUTICALS, priority 2006, published 2008)
